Earlier results in patent publication US20040087644A1, “Pharmaceutical composition in capsules that comprises a non-steroidal antiinflamatory and an optiate analgesic for handling pain” (Leopoldo Espinosa Abdala, priority 2002, published 2004).

What was measured:
pain = settings: clinical studies, compared with opiates
[1] = in vivo

dose excreted through the urine without changes [1]: About 90%
SMILES: O=C(c1ccccc1)c1ccc2n1CCC2C(=O)O (centres unmarked) [Ketorolac]
analgesic efficiency (pain): comparable with opiates
